Assay results taken from PubChem BioAssay AID248 (DTP/NCI, 2004).
Several values for one entry are separate records, joined by “and”; a condition that tells them apart may be missing. Equal entries are not always repeated. Toxic doses and inconclusive results are not listed.

Test system: L1210 leukemia ip in BDF1 mice, survival T/C
Assay: NCI In Vivo Anticancer Drug Screen. Data for tumor model L1210 Leukemia (intraperitoneal) in B6D2F1 (BDF1) mice
Settings: endpoint: mean survival time, higher = longer survival
Method in brief: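 Read-out is survival time, reported as the treated-group measurement over the vehicle-control measurement.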

[1] = dose: 50.0 mg/kg/injection, schedule: Q01DX001 (ip), vehicle: carboxymethylcellulose (CMC)
[2] = dose: 100.0 mg/kg/injection, schedule: Q01DX001 (ip), vehicle: carboxymethylcellulose (CMC)
[3] = dose: 200.0 mg/kg/injection, schedule: Q01DX001 (ip), vehicle: carboxymethylcellulose (CMC)
[4] = dose: 400.0 mg/kg/injection, schedule: Q01DX001 (ip), vehicle: carboxymethylcellulose (CMC)
[5] = dose: 100.0 mg/kg/injection, schedule: Q04DX003 (ip), vehicle: saline with Tween-80
[6] = dose: 200.0 mg/kg/injection, schedule: Q04DX003 (ip), vehicle: saline with Tween-80
[7] = dose: 50.0 mg/kg/injection, schedule: Q01DX009 (ip), vehicle: saline with Tween-80
[8] = dose: 100.0 mg/kg/injection, schedule: Q04DX003 (ip), vehicle: Klucel (hydroxypropylcellulose) (HPC)
[9] = dose: 100.0 mg/kg/injection, schedule: Q04DX002 (ip), vehicle: Klucel (hydroxypropylcellulose) (HPC)
[10] = dose: 400.0 mg/kg/injection, schedule: Q04DX002 (ip), vehicle: Klucel (hydroxypropylcellulose) (HPC)
[11] = dose: 100.0 mg/kg/injection, schedule: Q01DX009 (ip), vehicle: Klucel (hydroxypropylcellulose) (HPC)
[12] = dose: 200.0 mg/kg/injection, schedule: Q01DX009 (ip), vehicle: Klucel (hydroxypropylcellulose) (HPC)

`O=[N+]([O-])/C=C/c1ccc(Cl)cc1Cl` was tested, and the T/C (dose: 20.0 mg/kg/injection, schedule: Q01DX009 (ip), vehicle: saline with Tween-80) was 98 % of control, the T/C (dose: 20.0 mg/kg/injection, schedule: Q04DX003 (ip), vehicle: saline with Tween-80) was 90 % of control and the T/C (dose: 25.0 mg/kg/injection, schedule: Q04DX002 (ip), vehicle: Klucel (hydroxypropylcellulose) (HPC)) was 106 % of control. The T/C (dose: 40.0 mg/kg/injection, schedule: Q01DX009 (ip), vehicle: saline with Tween-80) was 102 % of control, the T/C (dose: 40.0 mg/kg/injection, schedule: Q04DX003 (ip), vehicle: saline with Tween-80) was 101 % of control and the T/C [1] was 95 % of control. For the same compound, the T/C (dose: 50.0 mg/kg/injection, schedule: Q04DX002 (ip), vehicle: Klucel (hydroxypropylcellulose) (HPC)) was 100 % of control, the T/C (dose: 80.0 mg/kg/injection, schedule: Q04DX003 (ip), vehicle: saline with Tween-80) was 111 % of control and the T/C [2] was 98 % of control. For the same compound, the T/C [3] was 89 % of control and the T/C [4] was 101 % of control.
For `COC(=O)/C=C(\C)Nc1ccc([N+](=O)[O-])cc1`, the T/C (dose: 100.0 mg/kg/injection, schedule: Q01DX001 (ip), vehicle: saline) was 97 % of control, the T/C (dose: 200.0 mg/kg/injection, schedule: Q01DX001 (ip), vehicle: saline) was 93 % of control and the T/C (dose: 400.0 mg/kg/injection, schedule: Q01DX001 (ip), vehicle: saline) was 92 % of control.
For `CCCCCCCCCCCCCCCCNCCCN`, the T/C [5] was 98 % of control and the T/C [6] was 96 % of control.
With `CCOC(=O)CCOc1ccccc1N(CCCl)CCCl` the T/C (dose: 1.2 mg/kg/injection, schedule: Q01DX Z (ip), vehicle: methylcellulose (MC)) was 110 % of control and 121 % of control, the T/C (dose: 2.4 mg/kg/injection, schedule: Q01DX Z (ip), vehicle: methylcellulose (MC)) was 110 % of control and 113 % of control and the T/C (dose: 3.13 mg/kg/injection, schedule: Q01DX009 (ip), vehicle: other) was 115 % of control. The T/C (dose: 4.7 mg/kg/injection, schedule: Q01DX Z (ip), vehicle: methylcellulose (MC)) was 108 % of control and 111 % of control, the T/C (dose: 6.2 mg/kg/injection, schedule: Q01DX001 (ip), vehicle: carboxymethylcellulose (CMC)) was 109 % of control and the T/C (dose: 8.7 mg/kg/injection, schedule: Q01DX Z (ip), vehicle: methylcellulose (MC)) was 178 % of control. The T/C (dose: 9.4 mg/kg/injection, schedule: Q01DX Z (ip), vehicle: methylcellulose (MC)) was 100 % of control and 120 % of control, the T/C (dose: 12.5 mg/kg/injection, schedule: Q04DX003 (ip), vehicle: other) was 106 % of control and the T/C (dose: 13.0 mg/kg/injection, schedule: Q01DX Z (ip), vehicle: methylcellulose (MC)) was 161 % of control. For the same compound, the T/C (dose: 22.0 mg/kg/injection, schedule: Q01DX001 (ip), vehicle: carboxymethylcellulose (CMC)) was 109 % of control, the T/C (dose: 25.0 mg/kg/injection, schedule: Q01DX001 (ip), vehicle: carboxymethylcellulose (CMC)) was 124 % of control and the T/C (dose: 25.0 mg/kg/injection, schedule: Q01DX009 (ip), vehicle: saline sonified) was 110 % of control. The T/C (dose: 25.0 mg/kg/injection, schedule: Q04DX003 (ip), vehicle: other) was 106 % of control, the T/C (dose: 33.0 mg/kg/injection, schedule: Q01DX001 (ip), vehicle: carboxymethylcellulose (CMC)) was 109 % of control and the T/C (dose: 44.0 mg/kg/injection, schedule: Q01DX Z (ip), vehicle: methylcellulose (MC)) was 201 % of control. The T/C (dose: 50.0 mg/kg/injection, schedule: Q01DX009 (ip), vehicle: saline sonified) was 114 % of control, the T/C [7] was 162 % of control and the T/C (dose: 66.0 mg/kg/injection, schedule: Q01DX Z (ip), vehicle: methylcellulose (MC)) was 159 % of control. For the same compound, the T/C (dose: 75.0 mg/kg/injection, schedule: Q01DX001 (ip), vehicle: carboxymethylcellulose (CMC)) was 112 % of control, the T/C (dose: 75.0 mg/kg/injection, schedule: Q01DX Z (ip), vehicle: methylcellulose (MC)) was 86 % of control and the T/C (dose: 100.0 mg/kg/injection, schedule: Q01DX Z (ip), vehicle: methylcellulose (MC)) was 109 % of control. The T/C [8] was 90 % of control.
With `COC(=O)c1ccccc1NS(=O)(=O)c1ccc(Cl)cc1` the T/C [9] was 94 % of control and the T/C [10] was 110 % of control.
In the case of `Cc1cc(N(CCCl)CCCl)ccc1C=Nc1ccc(S(N)(=O)=O)cc1`, the T/C [1] is reported as 95 % of control, the T/C [2] is reported as 104 % of control and the T/C [3] is reported as 101 % of control. For the same compound, the T/C [4] was 104 % of control.
In the case of `CSc1nc(C)c(Cl)c(SC)n1`, the T/C (dose: 50.0 mg/kg/injection, schedule: Q01DX009 (ip), vehicle: Klucel (hydroxypropylcellulose) (HPC)) is reported as 101 % of control, the T/C [11] is reported as 117 % of control and the T/C [12] is reported as 97 % of control.
For `Cc1nc(N)[nH]c(=O)c1CCCC#N`, the T/C (dose: 100.0 mg/kg/injection, schedule: Q01DX001 (ip), vehicle: Klucel (hydroxypropylcellulose) (HPC)) was 104 % of control, the T/C [9] was 97 % of control and 109 % of control and the T/C [8] was 101 % of control. For the same compound, the T/C (dose: 200.0 mg/kg/injection, schedule: Q01DX001 (ip), vehicle: Klucel (hydroxypropylcellulose) (HPC)) was 98 % of control, the T/C (dose: 200.0 mg/kg/injection, schedule: Q04DX002 (ip), vehicle: Klucel (hydroxypropylcellulose) (HPC)) was 93 % of control and 103 % of control and the T/C (dose: 200.0 mg/kg/injection, schedule: Q04DX003 (ip), vehicle: Klucel (hydroxypropylcellulose) (HPC)) was 112 % of control. The T/C (dose: 400.0 mg/kg/injection, schedule: Q01DX001 (ip), vehicle: Klucel (hydroxypropylcellulose) (HPC)) was 100 % of control and the T/C [10] was 104 % of control and 90 % of control.
With `N#CCCN1CCCC(=O)NC1=O` the T/C (dose: 100.0 mg/kg/injection, schedule: Q01DX009 (ip), vehicle: saline with Tween-80) was 103 % of control, the T/C (dose: 100.0 mg/kg/injection, schedule: Q04DX003 (ip), vehicle: saline) was 105 % of control and the T/C (dose: 200.0 mg/kg/injection, schedule: Q01DX009 (ip), vehicle: saline with Tween-80) was 94 % of control. For the same compound, the T/C (dose: 200.0 mg/kg/injection, schedule: Q04DX003 (ip), vehicle: saline) was 103 % of control, the T/C (dose: 400.0 mg/kg/injection, schedule: Q01DX009 (ip), vehicle: saline with Tween-80) was 97 % of control and the T/C (dose: 400.0 mg/kg/injection, schedule: Q04DX003 (ip), vehicle: saline) was 100 % of control.
In the case of `CC1CCN(C(=O)Nc2ccc(Cl)cc2[N+](=O)[O-])CC1`, the T/C [11] is reported as 92 % of control, the T/C [12] is reported as 97 % of control and the T/C (dose: 400.0 mg/kg/injection, schedule: Q01DX009 (ip), vehicle: Klucel (hydroxypropylcellulose) (HPC)) is reported as 91 % of control.
`O=C(COc1ccc([N+](=O)[O-])cc1Cl)Nc1ccccc1` was tested, and the T/C (dose: 100.0 mg/kg/injection, schedule: Q01DX009 (ip), vehicle: acetone) was 90 % of control, the T/C (dose: 100.0 mg/kg/injection, schedule: Q04DX003 (ip), vehicle: acetone) was 95 % of control and the T/C (dose: 200.0 mg/kg/injection, schedule: Q04DX003 (ip), vehicle: acetone) was 95 % of control. For the same compound, the T/C (dose: 400.0 mg/kg/injection, schedule: Q04DX003 (ip), vehicle: acetone) was 94 % of control.
For `Cc1ccc2c(c1)SCc1c-2[nH]c2ccccc12`, the T/C [5] was 103 % of control, the T/C [6] was 100 % of control and the T/C (dose: 400.0 mg/kg/injection, schedule: Q04DX003 (ip), vehicle: saline with Tween-80) was 108 % of control.
With `N#CCCOc1ccc(Cl)cc1` the T/C [5] was 96 % of control and the T/C [6] was 99 % of control.
`COc1cc(C2NC(=S)NC2=S)ccc1O` (stereo not drawn) was tested, and the T/C (dose: 25.0 mg/kg/injection, schedule: Q01DX009 (ip), vehicle: saline with Tween-80) was 104 % of control, the T/C (dose: 25.0 mg/kg/injection, schedule: Q04DX003 (ip), vehicle: saline with Tween-80) was 94 % of control and the T/C [7] was 96 % of control. For the same compound, the T/C (dose: 50.0 mg/kg/injection, schedule: Q04DX003 (ip), vehicle: saline with Tween-80) was 92 % of control and the T/C [5] was 94 % of control and 98 % of control.
